In brackets after ≈: the same amount, converted by molar mass.
Key:
HSV-1 [1] = assay: Viral plaque reduction in HSV-1 infected CV-1 cells (Table 3); type: cell-based; design: key: (-) indicates no reduction in viral plaque production; (+) indicates a 50% reduction in viral plaque production; (++) indicates an 80% reduction in viral plaque production
Experimental: (§1) This test is performed according to standard procedures for determination of cytotoxicity of a compound againt virus infected cells. In the present case, CV-1 (monkey kidney fibroblast cells) are infected with HSV-1 and the compounds of the invention tested against these at varying concentrations.
(§2) The numbers show the toxicity throughout the CV-1 cells sheet. (-) indicates no reduction in viral plaque production (+) indicates a 50% reduction in viral plaque production (++) indicates an 80% reduction in viral plaque production.

[2] = tested on: CV-1 (monkey kidney fibroblast cells); assay: Toxicity throughout the CV-1 cell sheet (Table 3); type: cell-based
Experimental: as §1, §2

[3] = tested on: VSV (Vesicular Stomatitis Virus); type: cell-based
HSV-1 [4] = assay: Inhibition of HSV-1 replication (anti-viral effect), PFU determination; type: cell-based; conditions: Human alphaherpesvirus 1; HSV-1 replication in CV-1 cells, 10 PFU per cell, 24 hours after infection
Experimental: 16mm dia. wells are seeded each with 2 x 10⁵ CV-1 cells in 1ml aliquots of MEM10C. After three days, the cells are infected with HSV-1 at 10 PFU (Plaque Forming Units) per cell. The inoculum is replaced, after adsorption for 1.5 hours, in pairs of wells with 0. 5 ml aliquots of MEM5C containing the test concentrations of each of AH-1 and AH-2. Four hours from infection, the cells from two wells are scraped into the medium and frozen to -80°C. [The average of PFU/ml of these samples forms the base for calculating net virus production]. The remaining samples are collected in pairs of wells 24 hours after infection and are also frozen to -80°C. For determination of PFU/ml, each sample is diluted to 10⁻⁸.

CV-1 cells = assay: Inhibition of growth of CV-1 cells (cytotoxic effect); type: cell-based, monkey
Experimental: CV-1 cells are seeded into 16 mm dia. wells at 10⁴ cells per well in 1ml aliquots of MEM10C. The following day, the medium is replaced with 0.5 ml aliquots of MEM10C containing the test concentrations of compounds AH-1 and AH-2, i. e. 0, 0.1, 0.5, 1, 5, 10 and 50 µg/ml. Determinations are all carried out in duplicate. Four days after seeding, the cells are trypsinised and counted. Percentage inhibition (%I) relative to the wells without test compound (i.e. the controls) is calculated and the IC₅₀ determined.

[5] = tested on: L-1210 cells (mouse lymphoma); assay: Activity against L-1210 cells; type: cell-based
[6] = tested on: VSV (Vesicular Stomatitis Virus); assay: microbe, parasite or virus in culture; type: cell-based; conditions: BHK, read-out: IC50 µg/ml approx
[7] = tested on: P-388 (mouse DBA/2 lymphoid neoplasm); assay: General anti-tumour assay, P-388; type: cell-based
Experimental: (§3) With compounds AH-3, AH-4 and AH-5, four general anti-tumour assays and two cytotoxicity assays were performed. Current screening protocols were employed using test substance diluted as above and at varying concentrations. Tests were performed against the tumour cells P-388 (mouse DBA/2 lymphoid neoplasm), A-549 (human lung carcinoma), HT-29 (human colon carcinoma) and MCF-7 (human breast carcinoma) and for the cytotoxicity assays against CV-1 (monkey kidney fibroblast) and BHK (Hamster kidney fibroblast).
(§4) Scoring is performed as follows: (-) no activity - the number of cells is equal to the control of growth, 0-40% cell inhibition (+) low activity - numbers of cells are reduced by approx 50-60% (++) good activity - numbers of cells are reduced by approx 70-90% (+++) very good activity - there is 100% cell inhibition [(+) is the approximate IC₅₀]

[8] = tested on: BHK (Hamster kidney fibroblast); assay: Cytotoxicity assay, BHK; type: cell-based
Experimental: as §3, §4

[9] = tested on: CV-1 (monkey kidney fibroblast); assay: Cytotoxicity assay, CV-1; type: cell-based
Experimental: as §3, §4

[10] = tested on: A-549 (human lung carcinoma); assay: General anti-tumour assay, A-549; type: cell-based
Experimental: as §3, §4

[11] = tested on: HT-29 (human colon carcinoma); assay: General anti-tumour assay, HT-29; type: cell-based
Experimental: as §3, §4

[12] = tested on: HSV-1 (herpes simplex virus, type 1); assay: General anti-viral assay, HSV-1 in CV-1 cells (plaque reduction); type: cell-based; conditions: Human alphaherpesvirus 1; CV-1/ HSV-1; read-out: IC50 µg/ml approx
[13] = tested on: MCF-7 (human breast carcinoma); assay: General anti-tumour assay, MCF-7; type: cell-based
Experimental: as §3, §4

## Cc1c2c(c3c4c1C(C1OC1(C)C)CC(C)C4CCC3C)OCO2 (stereo not shown) [AH-1, Helioporin A]
HSV-1 [1]; 5µl of 500µg/ml in MeOH/Acet
  reduction in viral plaque production: -
HSV-1 [1]; 10µl of 500µg/ml in MeOH/Acet
  reduction in viral plaque production: -
HSV-1 [1]; 20µl of 500µg/ml in MeOH/Acet
  reduction in viral plaque production: + ((+) indicates a 50% reduction in viral plaque production)
HSV-1 [1]; 40µl of 500µg/ml in MeOH/Acet
  reduction in viral plaque production: ++ ((++) indicates an 80% reduction in viral plaque production)
[2]; 5µl of 500µg/ml in MeOH/Acet
  toxicity throughout the CV-1 cells sheet: 0
[2]; 10µl of 500µg/ml in MeOH/Acet
  toxicity throughout the CV-1 cells sheet: 0
[2]; 20µl of 500µg/ml in MeOH/Acet
  toxicity throughout the CV-1 cells sheet: 0
[2]; 40µl of 500µg/ml in MeOH/Acet
  toxicity throughout the CV-1 cells sheet: 0
[3]
  activity against VSV: no activity
HSV-1 [4]
  IC50: 4 µg/mL (≈ 12.2 µM)
CV-1 cells; CV-1 cells, 0.1, 0.5, 1, 5, 10 and 50 µg/ml
  inhibition of growth: no inhibition of growth
CV-1 cells; Primates, 96 h, CV-1 cell growth, counted four days after seeding
  IC50: > 50 µg/mL
[5]
  activity against L-1210 cells: no activity

## CC(C)=CCCC(C)C1CCC(C)c2c1cc(C)c1c2OCO1 (stereo not shown) [AH-4, Helioporin D]
[6]
  IC50: > 40 µg/mL
[7]; Mus musculus, P388, P-388, read-out: IC50 µg/ml approx
  IC50: ~2 µg/mL (≈ 6.36 µM)
[7]; P-388, TEST CONC (µg) 0.2
  activity (cell inhibition): - ((-) no activity - the number of cells is equal to the control of growth, 0-40% cell inhibition)
[7]; P-388, TEST CONC (µg) 0.5
  activity (cell inhibition): - ((-) no activity - the number of cells is equal to the control of growth, 0-40% cell inhibition)
[7]; P-388, TEST CONC (µg) 1
  activity (cell inhibition): - ((-) no activity - the number of cells is equal to the control of growth, 0-40% cell inhibition)
[7]; P-388, TEST CONC (µg) 2
  activity (cell inhibition): + ((+) low activity - numbers of cells are reduced by approx 50-60%)
[7]; P-388, TEST CONC (µg) 5
  activity (cell inhibition): ++ ((++) good activity - numbers of cells are reduced by approx 70-90%)
[7]; P-388, TEST CONC (µg) 10
  activity (cell inhibition): ++ ((++) good activity - numbers of cells are reduced by approx 70-90%)
[7]; P-388, TEST CONC (µg) 20
  activity (cell inhibition): ++ ((++) good activity - numbers of cells are reduced by approx 70-90%)
[8]; Mesocricetus auratus, read-out: IC50 µg/ml approx
  IC50: 2 to 5 µg/mL (≈ 6.36 to 15.9 µM)
[8]; TEST CONC (µg) 0.2
  activity (cell inhibition): - ((-) no activity - the number of cells is equal to the control of growth, 0-40% cell inhibition)
[8]; TEST CONC (µg) 0.5
  activity (cell inhibition): - ((-) no activity - the number of cells is equal to the control of growth, 0-40% cell inhibition)
[8]; TEST CONC (µg) 1
  activity (cell inhibition): - ((-) no activity - the number of cells is equal to the control of growth, 0-40% cell inhibition)
[8]; TEST CONC (µg) 2
  activity (cell inhibition): - ((-) no activity - the number of cells is equal to the control of growth, 0-40% cell inhibition)
[8]; TEST CONC (µg) 5
  activity (cell inhibition): ++ ((++) good activity - numbers of cells are reduced by approx 70-90%)
[8]; TEST CONC (µg) 10
  activity (cell inhibition): +++ ((+++) very good activity - there is 100% cell inhibition)
[8]; TEST CONC (µg) 20
  activity (cell inhibition): +++ ((+++) very good activity - there is 100% cell inhibition)
BHK cells
  cytotoxicity (inhibition zone on the cell sheet): 0-
[9]; CV-1, TEST CONC (µg) 0.2
  activity (cell inhibition): - ((-) no activity - the number of cells is equal to the control of growth, 0-40% cell inhibition)
[9]; CV-1, TEST CONC (µg) 0.5
  activity (cell inhibition): - ((-) no activity - the number of cells is equal to the control of growth, 0-40% cell inhibition)
[9]; CV-1, TEST CONC (µg) 1
  activity (cell inhibition): - ((-) no activity - the number of cells is equal to the control of growth, 0-40% cell inhibition)
[9]; CV-1, TEST CONC (µg) 2
  activity (cell inhibition): - ((-) no activity - the number of cells is equal to the control of growth, 0-40% cell inhibition)
[9]; CV-1, TEST CONC (µg) 5
  activity (cell inhibition): - ((-) no activity - the number of cells is equal to the control of growth, 0-40% cell inhibition)
[9]; CV-1, TEST CONC (µg) 10
  activity (cell inhibition): + ((+) low activity - numbers of cells are reduced by approx 50-60%)
[9]; CV-1, TEST CONC (µg) 20
  activity (cell inhibition): ++ ((++) good activity - numbers of cells are reduced by approx 70-90%)
[9]; Primates, CV-1, read-out: IC50 µg/ml approx
  IC50: ~10 µg/mL (≈ 31.8 µM)
[10]; A-549, TEST CONC (µg) 0.2
  activity (cell inhibition): - ((-) no activity - the number of cells is equal to the control of growth, 0-40% cell inhibition)
[10]; A-549, TEST CONC (µg) 0.5
  activity (cell inhibition): - ((-) no activity - the number of cells is equal to the control of growth, 0-40% cell inhibition)
[10]; A-549, TEST CONC (µg) 1
  activity (cell inhibition): - ((-) no activity - the number of cells is equal to the control of growth, 0-40% cell inhibition)
[10]; A-549, TEST CONC (µg) 2
  activity (cell inhibition): - ((-) no activity - the number of cells is equal to the control of growth, 0-40% cell inhibition)
[10]; A-549, TEST CONC (µg) 5
  activity (cell inhibition): - ((-) no activity - the number of cells is equal to the control of growth, 0-40% cell inhibition)
[10]; A-549, TEST CONC (µg) 10
  activity (cell inhibition): ++ ((++) good activity - numbers of cells are reduced by approx 70-90%)
[10]; A-549, TEST CONC (µg) 20
  activity (cell inhibition): ++ ((++) good activity - numbers of cells are reduced by approx 70-90%)
[10]; Homo sapiens, A549, A-549, read-out: IC50 µg/ml approx
  IC50: 5 to 10 µg/mL (≈ 15.9 to 31.8 µM)
[11]; HT-29, TEST CONC (µg) 0.2
  activity (cell inhibition): - ((-) no activity - the number of cells is equal to the control of growth, 0-40% cell inhibition)
[11]; HT-29, TEST CONC (µg) 0.5
  activity (cell inhibition): - ((-) no activity - the number of cells is equal to the control of growth, 0-40% cell inhibition)
[11]; HT-29, TEST CONC (µg) 1
  activity (cell inhibition): - ((-) no activity - the number of cells is equal to the control of growth, 0-40% cell inhibition)
[11]; HT-29, TEST CONC (µg) 2
  activity (cell inhibition): - ((-) no activity - the number of cells is equal to the control of growth, 0-40% cell inhibition)
[11]; HT-29, TEST CONC (µg) 5
  activity (cell inhibition): + ((+) low activity - numbers of cells are reduced by approx 50-60%)
[11]; HT-29, TEST CONC (µg) 10
  activity (cell inhibition): +++ ((+++) very good activity - there is 100% cell inhibition)
[11]; HT-29, TEST CONC (µg) 20
  activity (cell inhibition): +++ ((+++) very good activity - there is 100% cell inhibition)
[11]; Homo sapiens, HT-29, read-out: IC50 µg/ml approx
  IC50: ~5 µg/mL (≈ 15.9 µM)
[12]
  IC50: > 40 µg/mL
[13]; Homo sapiens, MCF7, MCF-7, read-out: IC50 µg/ml approx
  IC50: ~10 µg/mL (≈ 31.8 µM)
[13]; MCF-7, TEST CONC (µg) 0.2
  activity (cell inhibition): - ((-) no activity - the number of cells is equal to the control of growth, 0-40% cell inhibition)
[13]; MCF-7, TEST CONC (µg) 0.5
  activity (cell inhibition): - ((-) no activity - the number of cells is equal to the control of growth, 0-40% cell inhibition)
[13]; MCF-7, TEST CONC (µg) 1
  activity (cell inhibition): - ((-) no activity - the number of cells is equal to the control of growth, 0-40% cell inhibition)
[13]; MCF-7, TEST CONC (µg) 2
  activity (cell inhibition): - ((-) no activity - the number of cells is equal to the control of growth, 0-40% cell inhibition)
[13]; MCF-7, TEST CONC (µg) 5
  activity (cell inhibition): - ((-) no activity - the number of cells is equal to the control of growth, 0-40% cell inhibition)
[13]; MCF-7, TEST CONC (µg) 10
  activity (cell inhibition): + ((+) low activity - numbers of cells are reduced by approx 50-60%)
[13]; MCF-7, TEST CONC (µg) 20
  activity (cell inhibition): ++ ((++) good activity - numbers of cells are reduced by approx 70-90%)

— patent EP0432983A2 (priority 1989, dated 1991)
